Results reported in patent US20190083420A1, “METHODS OF USING (2R, 6R)-HYDROXYN[…] (2S, 6S)-HYDROXYN[…] THE TREATMENT OF DEPRESSION, ANXIETY, ANHEDONIA, FATIGUE, SUICIDAL IDEATION, AND POST TRAUMATIC STRESS DISORDERS” (The Uinited States of America, as represented by the …, priority 2016, published 2019).
Entries after “also recorded” stand apart in the source; their conditions may differ.

Key:
male CD-1 mice = test: Forced-swim test (FST); format: in vivo; conditions: for antidepressant effect in the FST (immobility time): i.p.
Excerpt: Male CD-1 mice (8-10 weeks old, Charles River Laboratories, Mass., USA) were housed in groups of four-five per cage with a constant 12-hour light/dark cycle (lights on/off at 07:00/19:00). Food and water were available ad libitum. Mice acclimatized to the new environment for seven days prior to the start of the experiments. For the whole-cell NMDA current electrophysiological recordings, male Sprague-Dawley rats (housed three per cage; Charles River, Wilmington, Mass.) were used. EPSC recording were done from rats at postnatal day 24-25. All experimental procedures were approved by the University of Maryland, Baltimore Animal Care and Use Committee and were conducted in full accordance with the National Institutes of Health Guide for the Care and Use of Laboratory Animals.
Mice were tested in the FST 1 hour and/or 24 hours post-injection. During the FST, mice were subjected to a 6-min swim session in clear Plexiglass cylinders (30 cm height×20 cm diameter) filled with 15 cm of water (23±1° C.). The FST was performed in normal light conditions (800 Lux). Sessions were recorded using a digital video-camera. Immobility time, defined as passive floating with no additional activity other than that necessary to keep the animal's head above water, was scored for the last 4 min of the 6-min test by a trained observer blind to the treatment.
All drugs were dissolved in 0.9% saline, and administered intraperitoneally (i.p.) in a volume of 7.5 ml/kg of body mass. Corticosterone (4-pregnen-11β, 21-diol-3, 20-dione 21-hemisuccinate; Steraloids, Newport, R.I., USA) was dissolved in tap water. For the electrophysiology recordings, test drugs were diluted in artificial cerebrospinal fluid (AC SF).

mice [1] = test: Open field test (locomotor activity); format: in vivo; conditions: 1 hour after i.p. drug
Description: Mice were placed into individual open-field arenas (50 cm length×50 cm width×38 cm height; San Diego Instruments, San Diego, Calif., USA) for a 60-min habituation period. Mice were then injected with the respective drug and assessed for locomotor activity for another 60 min. Distance travelled was analyzed using TopScan v2.0 (CleverSys, Inc, Reston, Va., USA).

mice [2] = test: Quantitative EEG, cortical oscillation power; format: in vivo; conditions: for cortical gamma power: acute; for cortical gamma power / cortical alpha, beta, delta and theta oscillations: after i.p. 10 mg/kg
Description: EEG experiments were performed according to Raver et al., (Neuropsychopharmacology, 38, 2338-2347 (2013)) with minor modifications. Mice were anesthetized with isoflurane and kept under anesthesia throughout the surgery. An F20-EET radio-telemetric transmitter (Data Sciences International, Minneapolis, Minn.) was implanted subcutaneously and its leads implanted over the dura above the frontal cortex (1.7 mm anterior to bregma) and the cerebellum (6.4 mm posterior to bregma). Animals recovered from surgery for 7 days before recordings.
Mice were singly housed and acclimated to the behavioral room for 24 hours prior to EEG recordings. EEGs were recorded using the Dataquest A.R.T. acquisition system (Data Sciences International) with frontal EEG recordings referenced to the cerebellum. Baseline EEG (10 min) recordings were followed by an i.p. injection of saline, ketamine (10 mg/kg) or (2R,6R)-HNK (10 mg/kg) and 40 min of post-injection recordings.
ECoGs were analyzed using custom-written MATLAB scripts (Version 2012a, Mathworks, Mass.) and the mtspecgramc routine in the Chronux Toolbox (http://chronux.org; Mitra and Bokil, 2008). Oscillation power in each bandwidth (δ=1-3 Hz; θ=4-7 Hz; α=8-12 Hz; β=13-29 Hz; γ=30-80 Hz) was computed in 10 min bins from spectrograms for each animal.

eEF2 = test: Western blot of synaptoneurosomes, eEF2 phosphorylation; format: in vivo, mice; conditions: for phosphorylation of eEF2: hippocampus, 1 hour and 24 hours post-injection, 10 mg/kg; for eEF2 / phosphorylated eEF2: prefrontal cortex
Description: To purify synaptoneurosomes, mouse prefrontal cortex or hippocampus were dissected and homogenized in Syn-PER Reagent (ThermoFisher Scientific, Waltham, Mass., USA; Cat #87793) with 1× protease and phosphatase inhibitor cocktail (ThermoFisher Scientific, Waltham, Mass., USA; Cat #78440). The homogenate was centrifuged for 10 min at 1,200×g at 4° C. The supernatant was centrifuged at 15,000×g for 20 min. After centrifugation, the supernatant the pellet (synaptosomal fraction) was re-suspended and sonicated in N-PER Neuronal Protein Extraction Reagent (ThermoFisher Scientific, Waltham, Mass., USA; Cat #87792). For total homogenous tissue lysates, mouse prefrontal cortex or hippocampus were homogenized and sonicated in N-PER Neuronal Protein Extraction Reagent with 1× protease & phosphatase inhibitor cocktail) Protein concentration was determined via the BCA protein assay kit (ThermoFisher Scientific, Waltham, Mass., USA; Cat #23227).
For western blotting, equal amount of proteins (10-40 μg as optimal for each antibody) for each sample were loaded into NuPage 4-12% Bis-Tris gel for electrophoresis. Nitrocellulose membranes with transferred proteins were blocked with 5% milk in TBST (TBS+0.1% Tween-20) for 1 hour and kept with primary antibodies overnight at 4° C. The following primary antibodies were used: phospho-eEF2 (Cell Signaling Technology, Danvers, Mass., USA; Cat #2331), total eEF2 (Cell Signaling Technology, Danvers, Mass., USA; Cat #2332), phospho-mTOR (Cell Signaling Technology, Danvers, Mass., USA; Cat #2971), total mTOR (Cell Signaling Technology, Danvers, Mass., USA; Cat #2983), GluR1 (Cell Signaling Technology, Danvers, Mass., USA; […]), GluR2 (Cell Signaling Technology, Danvers, Mass., USA; Cat #13607), BDNF (Santa Cruz Biotechnology, Dallas, Tex., USA; Cat # sc-546), and GAPDH (Abcam, Cambridge, Mass., USA; Cat # ab8245). The next day, blots were washed three times in PBST and incubated with horseradish peroxidase conjugated anti-mouse or anti-rabbit secondary antibody (1:5000 to 1:10000) for 1 hour. After final three washes with TBST, bands were detected using enhanced chemiluminescence (ECL) with the Syngene Imaging System (G:Box ChemiXX9). After imaging, the blots then were incubated in the stripping buffer (ThermoFisher Scientific, Waltham, Mass., USA; Cat #46430) for 10-15 min at room temperature followed by three time washes with TBST. The stripped blots were washed in blocking solution for 1 hour and incubated with the primary antibody directed against total levels of the respective protein or GAPDH for loading control. Densitometric analysis of phospho- and total immunoreactive bands for each protein was conducted using Syngene's GenTools software Immunoreactivity was normalized to the saline treated control group for each protein.

[3] = 1- and 24-hours post-injection, times not separated
[4] = 24 hours post-injection (sustained)

Row | Structure (SMILES) | antidepressant effect in the FST (immobility time) (male CD-1 mice; [3]) | antidepressant effect in the FST (immobility time) (male CD-1 mice; 1 hour post-injection (acute)) | antidepressant effect in the FST (immobility time) (male CD-1 mice; [4]) | antidepressant potency in the FST, female versus male mice (male CD-1 mice; female mice compared to males) | locomotor activity in the open-field test (mice [1]) | locomotor activity in the open-field test (mice [1]; listed as (R,S)-KET) | locomotor activity in the open-field test (mice [1]; listed as (R,S)-ketamine) | cortical gamma power (mice [2]; 10 mg/kg) | cortical alpha, beta, delta and theta oscillations (mice [2]) | locomotor home-cage activity during EEG recording (mice [2]; mouse, in vivo) | phosphorylation of eEF2 (eEF2) | phosphorylation of eEF2 (eEF2; listed as (R,S)-ketamine) | eEF2 / phosphorylated eEF2 (eEF2; listed as (R,S)-KET) | cortical alpha, beta, delta and theta oscillations (mice [2]; 10 mg/kg) | phosphorylation of eEF2 (eEF2; listed as (2R,6R)-hydroxynorketamine) | eEF2 / phosphorylated eEF2 (eEF2)
1 | CNC1(c2ccccc2Cl)CCCCC1=O (racemic) [ketamine, (R,S)-ketamine, reference compound] | acute and long-lasting dose-dependent antidepressant effects | antidepressant responses of both ketamine and MK-801 observed acutely | showed sustained effects following 24 hours | greater antidepressant potency of ketamine in female mice | not associated with sex differences in ketamine-induced hyperlocomotion | induced hyper-locomotor responses equally in both male and female mice | equally potent in inducing a hyper-locomotor response | acutely increases cortical gamma power | Neither (R,S)-KET, nor (2R,6R)-HNK altered | increased locomotor home-cage activity | induced a decrease in eEF2 phosphorylation | decrease phosphorylation of eEF2 | did not alter |  |  | 
2 | N[C@@]1(c2ccccc2Cl)CCC[C@@H](O)C1=O [(2R,6R)-HNK, (2R,6R)-2-amino-2-(2-chlorophenyl)-6-hydroxycyclohexanone] | greater potency and longer-lasting antidepressant-like effects; also recorded: dose-dependent antidepressant-like effects; also recorded: dose-dependent antidepressant action |  | more potent antidepressant effects |  | did not induce any significant change in locomotion; also recorded: did not induce any stimulant-like hyperlocomotion |  |  | acutely increases cortical gamma power |  |  |  |  |  | without altering alpha, beta, delta or theta oscillations; also recorded: Neither (R,S)-KET, nor (2R,6R)-HNK altered | decrease phosphorylation of eEF2 | did not alter
